Measurements reported in PubChem BioAssay (NCI).
“And” between values parts separate entries of the source, which are not always exact repeats. Equal entries are not always repeated.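 Protocol summary: plate cells (96-well), add compound at 5 concentrations, incubate 48 h, interpolate endpoints linearly. GI50: concentration for 50% inhibition of growth. TGI: total growth inhibition.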

Tests used:
Experiment in all cases: inhibition of tumour cell growth, NCI panel, 48 h
DU-145 prostate = test system: DU-145 prostate
MDA-MB-231 breast = test system: MDA-MB-231 breast
DLD-1 colon = test system: DLD-1 colon
DMS 114 small cell lung = test system: DMS 114 small cell lung
SNB-78 CNS = test system: SNB-78 CNS
M19-MEL melanoma = test system: M19-MEL melanoma
XF 498 CNS = test system: XF 498 CNS
MDA-N = test system: MDA-N

SMILES | GI50 (DU-145 prostate) | TGI (DU-145 prostate) | GI50 (MDA-MB-231 breast) | TGI (MDA-MB-231 breast) | further results
CC(C)C[C@H](NC(=O)[C@H](Cc1ccccc1)n1ccc(N2CCCCC2)cc1=O)B(O)O | 0.706 µM | > 100 µM | 1.2 µM | 12.2 µM | –
O=C1/C(=C/c2cccc([N+](=O)[O-])c2)COc2ccc(O)c(O)c21 | 1.9 µM | 4.39 µM | 1.47 µM | 2.98 µM | –
O=C(Nc1ccc(Cl)c([N+](=O)[O-])c1)Nc1nc2ccccc2s1 | 4.22 µM | 14.6 µM | 3.5 µM | 12.1 µM | –
CN1CCN(Cc2ccc(-c3cc4ncnc(Nc5ccc(OCc6cccc(F)c6)c(Cl)c5)c4s3)o2)CC1 | 4.03 µM | 7.47 µM | 4.56 µM | 9.01 µM | –
O=C(Nc1ccc(Cl)c(C(F)(F)F)c1)C(=O)C(C(=O)/C=C/c1ccccc1)C1OC(=O)c2ccccc21 (configuration not stated) | – | – | – | – | TGI (DLD-1 colon): > 100 µM; TGI (DMS 114 small cell lung): > 100 µM; TGI (SNB-78 CNS): > 100 µM; TGI (M19-MEL melanoma): > 100 µM; TGI (XF 498 CNS): > 100 µM
O=C(O)c1ccc(NC(=O)C2C(=O)C(=O)N(c3ccc(C(=O)O)cc3)C2=O)cc1 (configuration not stated) | – | – | – | – | TGI (DLD-1 colon): > 100 µM; TGI (SNB-78 CNS): > 100 µM; TGI (M19-MEL melanoma): > 100 µM; TGI (XF 498 CNS): > 100 µM
Cn1ccnc1C(=O)/C=C/c1ccc(CC(=O)Nc2ccc(Cl)cc2)cc1 | 1.42 µM | > 25 µM | 5.23 µM | > 25 µM | –
O=C(Nc1ccc(-c2nc3cc4ccccc4cc3[nH]2)cc1)c1cccc(Br)c1 | 3.03 µM | 19.1 µM | 3.11 µM | 19.3 µM | –
COc1cc2oc(=O)cc(C)c2cc1[N+](=O)[O-] | – | > 100 µM | – | 71.6 µM | TGI (MDA-N): 28.4 µM
O=C(/C=C/c1ccco1)c1ccc(Nc2nc(Nc3ccc(F)cc3)nc(Nc3ccc(Cl)cc3)n2)cc1 | 30.9 µM | > 74.7 µM | 16.2 µM | 61.9 µM | –
c1ccc(N=C2c3ccccc3CN2c2ccccc2)cc1 | – | > 100 µM | – | > 100 µM | TGI (MDA-N): > 100 µM
O=[N+]([O-])c1ccc(N2CCN(Cc3ccccc3)CC2)c2c1no[n+]2[O-] | 1.57 µM | 2.98 µM | 1.56 µM | 3.08 µM | –
CCn1c(=O)c(-c2ccn[nH]2)cc2c(C)nc(N)nc21 | 2.34 µM | > 100 µM | 1.45 µM | 12 µM | –
COc1nc2c(OC)cccc2c(OC)c1C=O | – | – | – | – | TGI (DMS 114 small cell lung): > 100 µM; TGI (M19-MEL melanoma): > 100 µM; TGI (XF 498 CNS): > 100 µM
O=C(Nc1ccc(S(=O)(=O)Nc2nccs2)cc1)c1cccnc1Nc1cccc(Cl)c1 | 15.2 µM | 30.6 µM | 5.73 µM | 21.4 µM | –
CS(=O)(=O)c1ccc(Oc2cc(F)cc(C#N)c2)c2c1[C@H](O)[C@H](F)[C@@H]2F | > 100 µM | > 100 µM | > 100 µM | > 100 µM | –
Cc1ccc(Nc2nc(NCCO)c3ccccc3n2)cc1C | 10.3 µM | 22 µM | 4.22 µM | 16.1 µM | –
CC(C(=O)N1C(=O)N(C(=O)C(C)C(O)c2ccccc2)C(c2ccccc2)C1c1ccccc1)C(O)c1ccccc1 (configuration not stated) | – | > 100 µM | – | 77.9 µM | –
COc1cccc(-c2nn(-c3ccccc3)cc2-c2ccnc(NCCNS(=O)(=O)c3ccc(Cl)cc3)c2)c1 | 7.55 µM | > 100 µM | 3.55 µM | > 100 µM | –
CN(N=O)C(=O)Nc1c[nH]c(=O)[nH]c1=O | – | > 100 µM | – | > 100 µM | TGI (MDA-N): > 100 µM
Oc1ccc(C(c2ccccc2)(c2ccccc2)c2ccccc2)cc1 | 13.3 µM | 27.8 µM | 16.7 µM | 34.2 µM | –
O=C1OC(c2ccco2)=N/C1=C\c1ccc(Cl)c(Cl)c1 | – | > 100 µM | – | > 100 µM | TGI (MDA-N): > 100 µM
Nc1c(C(=O)Nc2ccccc2)sc2nc3c(cc12)CCCCCC3 | 0.445 µM | 12.3 µM | 0.892 µM | 43.1 µM | –
CC(Cn1c2c3ccccc3ccc2c2oc(=O)c3ccccc3c21)N(C)C (configuration not stated) | – | – | – | – | TGI (DLD-1 colon): > 100 µM; TGI (DMS 114 small cell lung): > 100 µM; TGI (SNB-78 CNS): > 100 µM; TGI (XF 498 CNS): > 100 µM
C=C1C(=O)O[C@@H]2C[C@@H]1CC[C@]1(C)O[C@H]1CC[C@@]1(C)O[C@@H]1CC[C@@]2(C)O | 35 µM | > 100 µM | 25.1 µM | 68.4 µM | –
CCC1=C(C)/C(=C/c2[nH]c(C)c(C(=O)CCCCC(=O)OC)c2C)N=C1c1ccc[nH]1 | 12.2 µM | 24.6 µM | 4.6 µM | 46.4 µM | –

SMILES | GI50 (DU-145 prostate) | TGI (DU-145 prostate) | GI50 (MDA-MB-231 breast) | TGI (MDA-MB-231 breast) | further results
CC(C)(C)[OH+][O-].[O-]c1ccc(Cl)cc1C=Nc1ccc(Cl)cc1[O-].[O]=[V] | 16.5 µM | 54.2 µM | 29.9 µM | > 100 µM | GI50 (MDA-N): 7.92 µM; TGI (MDA-N): > 100 µM
CN/N=C(/Cc1occc(=O)c1O)C(=O)Nc1ccc(C)c(C)c1 | – | – | – | – | TGI (DMS 114 small cell lung): > 100 µM; TGI (SNB-78 CNS): > 100 µM; TGI (M19-MEL melanoma): > 100 µM
CCOC(=N)CC(=O)Nc1ccc(Cl)cc1 | – | – | – | – | TGI (DLD-1 colon): > 100 µM; TGI (SNB-78 CNS): > 100 µM; TGI (M19-MEL melanoma): > 100 µM; TGI (XF 498 CNS): > 100 µM
CC(O)C1OC(O)C2OC(C)(C)OC12 (configuration not stated) | – | > 100 µM | – | > 100 µM | TGI (MDA-N): > 100 µM
C=C1C(=O)O[C@H]2[C@H]1CC/C(COC(=O)C(=O)c1c[nH]c3ccccc13)=C\CC[C@@]1(C)O[C@@H]21 | 3.12 µM | 11.8 µM | 2.46 µM | 5.5 µM | –
CC(C)(C)[Si](C)(C)OCC1CCC(n2cnc3c(NC(=O)c4ccccc4)ncnc32)O1 (configuration not stated) | – | 37 µM | – | 37.1 µM | TGI (MDA-N): 30.9 µM
COc1cc(/C=C(/C)[N+](=O)[O-])ccc1O | 2.01 µM and 1.59 µM | 4.11 µM and 3.26 µM | 2.14 µM and 2.64 µM | 5.5 µM and 7.44 µM | –
CN(C)/[N+]([O-])=N/Oc1cc(Nc2cccc(C(=O)O)c2)c([N+](=O)[O-])cc1[N+](=O)[O-] | > 100 µM | > 100 µM | > 100 µM | > 100 µM | –
O=C(Cc1nc2ccccc2s1)C(=O)Nc1ccc(Cl)cc1 | – | – | – | – | TGI (DLD-1 colon): > 100 µM; TGI (DMS 114 small cell lung): > 100 µM; TGI (SNB-78 CNS): > 100 µM; TGI (M19-MEL melanoma): > 100 µM
CNc1ccccc1C(=O)N/N=C/C=C/c1ccccc1 | 3.47 µM | > 57.6 µM | 4.11 µM | 62 µM | –
COC(=O)c1c[nH]cc1CCc1c[nH]cc1C(=O)OC | – | – | – | – | TGI (SNB-78 CNS): > 100 µM; TGI (M19-MEL melanoma): > 100 µM; TGI (XF 498 CNS): > 100 µM
COc1ccc(C(=O)/C=C/c2ccc(O)c(O)c2F)c(OC)c1 | 5.38 µM | 16.2 µM and 19 µM | – | 38.1 µM and 42.1 µM | GI50 (MDA-N): 2.38 µM; TGI (MDA-N): 27.2 µM and 25.8 µM
Cc1ccc(C)c(NC(=O)C(=O)C2C(=O)C3=C(CC2(C)C)Nc2ccccc2S3)c1 (configuration not stated) | – | > 100 µM | – | > 100 µM | TGI (MDA-N): > 100 µM
COC(=O)/C=C/c1cc(O)c2c(c1)C(C(=O)OC)C(c1ccc(O)c(O)c1)O2 (configuration not stated) | 0.372 µM and 0.053 µM | > 100 µM | 0.192 µM and 0.308 µM | 18.2 µM and 47.1 µM | –
CC/C=C\C[C@H](O)C/C=C1/C(=O)C=C[C@@H]1C/C=C\CCCC(=O)NC(C)C | 3.22 µM | 13.5 µM | 4.72 µM | 16.7 µM | –
COc1ccc(CN2C(=O)/C(=C\c3cc(OC)c(OC)c(OC)c3)c3cc(OC)ccc32)cc1 | 2.96 µM | 7.64 µM | 2.89 µM | > 100 µM | –
Cc1ccc(C)c(NC(=O)C(=O)C(c2cnc3ccc([N+](=O)[O-])cc3n2)[N+](=O)[O-])c1 (configuration not stated) | – | > 100 µM | – | – | TGI (MDA-N): > 100 µM
O=C1c2ccccc2-c2c1c1ccccc1c(=O)n2CCCNCCCn1c2c(c3ccccc3c1=O)C(=O)c1ccccc1-2 | 1.49 µM | 5.85 µM | 1.09 µM | 4.25 µM | –
Oc1c(CN2CCC(N3CCOCC3)CC2)cc(Cc2cc(CN3CCC(N4CCOCC4)CC3)c(O)c3ncccc23)c2cccnc12 | 0.612 µM | > 100 µM | 0.27 µM | 5.03 µM | –
Oc1cccc2c1NC1=C(CCC/C1=C\c1ccccc1)C2 | – | – | – | – | TGI (DMS 114 small cell lung): > 100 µM; TGI (M19-MEL melanoma): > 100 µM; TGI (XF 498 CNS): > 100 µM
CC(C)C[C@@H](NC(=O)[C@@H](Cc1ccccc1)NC(=O)c1cnccn1)B1O[C@H]2[C@H](O)[C@@H](C(=O)NCCCC[C@@H]3NC(=O)[C@@H](Cc4ccccc4)NC(=O)[C@H](CC(=O)O)NC(=O)CNC(=O)[C@H](CCCN=C(N)N)NC3=O)O[C@@H](CN)[C@H]2O1 | 0.00662 µM and 0.005 µM | 5.36 µM | 0.0124 µM and 0.00828 µM | 0.0574 µM and 0.0692 µM | –
CCNc1nnc(CSc2nc(-c3ccccc3)c(-c3ccccc3)[nH]2)s1 | – | – | – | – | TGI (DLD-1 colon): 52.7 µM; TGI (DMS 114 small cell lung): 63.1 µM; TGI (SNB-78 CNS): 96.3 µM; TGI (M19-MEL melanoma): 32.1 µM
N#CC1=C(N)Oc2cc3c(cc2C1c1cccs1)OCO3 (configuration not stated) | 0.824 µM | > 100 µM | 5.41 µM | > 100 µM | –
CN(C)c1ccc(-c2cc(=O)c3ccccc3[nH]2)cc1 | – | – | – | – | TGI (DLD-1 colon): > 100 µM; TGI (DMS 114 small cell lung): > 100 µM; TGI (SNB-78 CNS): > 100 µM; TGI (M19-MEL melanoma): > 100 µM
COc1ccc(C(=O)Cn2c(C(=O)c3ccc(OC)cc3)nc3ccccc32)cc1 | 4.31 µM | > 100 µM | 9.23 µM | > 100 µM | –
COc1ccc(C(=O)Cn2c(C(=O)c3ccc(Cl)cc3)nc3ccccc32)cc1 | > 100 µM | > 100 µM | 24.8 µM | > 100 µM | –
